Key:
[1] = system: A498; test: Anticancer MTT assay, A498; type: cell-based; details: Homo sapiens, 24 h
Protocol: (§1) The MTT assay was used to assess the cytotoxicity of salicylalazine isolated from M. biflora as per the previously documented method. For the MTT assay, Gibco BRL was combined with 100 µg/mL of penicillin sodium salts, 10% FBS (Gibco), and sodium carbonate (2 mg/mL). The prepared medium was used to keep three human cancer cell lines: human hepatoma (HepG2), human A498, and renal NCI-h226 non-small cell lung). Mouse hepatocytes, including HepG2 and HepG-R, were planted in 96-well plates. The cell lines were preserved with salicylalazine (1.5–100 μM), hatched for 24 h, and then they were tracked using the MTT procedure^14. This method was used for all tested cell lines. The IC50 value of salicylalazine in different cell lines was calculated from the concentration-effect curves. The standard drug used in this experiment was paclitaxel.

[2] = Inclined plane muscle relaxation model; type: in vivo, mice (Balb/c)
Protocol: (§2) Healthy mice (Balb/c) with weight ranging from 20 to 22 g and ages 9 to 10 weeks were used in this screening model. The grown animals were provided with standard laboratory conditions such as standard food and water ad libitum. The in vivo biological screening test was performed at the Department of Veterinary Medicine, College of Agriculture and Veterinary Medicine, Qassim University Buraydah, Saudi Arabia, as well as Swabi University, KP, Pakistan, according to published procedures.
An inclined plane screening procedure was adapted to identify the muscle relaxation effects of salicylalazine isolated from M. biflora according to a reported procedure. The inclined plane used in screening contained two plywood boards, and these boards were connected, where one board was at 60 0 from the base while the other one was aligned from the base. Various groups of animals were distributed into several groups; each group comprised six animals (n = 6). Animals in each group were administered water (10 mL/kg), standard drug (diazepam, 1 mg/kg), and salicylalazine at different doses of 2.5, 5, 10, 15, and 20 mg/kg, i.p. After various time intervals, such as 30, 60, and 90 min post-administration, animals were allowed on the higher part of the inclined plane for 30 s to drop or hang.

[3] = Open field sedative test; type: in vivo, mice (Balb/c); details: 30 min after administration
Protocol: as §2
The sedative potential of salicylalazine isolated from M. biflora was assessed as per the reported procedure. The animals were divided into different groups, as designated above. The apparatuses used in this screening contained an area of white wood with a 150 cm diameter bordered by stainless steel walls and was separated into 19 squares by black lines. Then, the open field apparatus was positioned inside the light and sound-reduced room. The different groups of animals were administered distilled water, diazepam, and salicylalazine at different doses. Thirty minutes after administration, all groups of animals were permitted to move from the center of the design box. […] Statistical calculations were performed by counting the number of lines crossed by every animal.

[4] = target: COX-1 (Homo sapiens, UniProt P23219); test: In vitro COX-1 inhibition (screening kit)
Protocol: The in vitro inhibition of cyclooxygenases (COX-1 and COX-2) by the isolated compounds was determined using screening kits.

[5] = system: LCMK-2 monkey kidney cells; test: Cytotoxicity MTT assay, LCMK-2 monkey kidney cells; type: cell-based
Protocol: (§3) Salicylalazine isolated from M. biflora was also screened for in vitro cytotoxicity using mouse hepatocytes and LCMK-2 monkey kidney cells. According to the MTT assay, salicylalazine was incubated for 24 h and the viability of the cell was identified. In this screening test, the cells were kept in RPMI 1640 medium as per the reported method. The medium used in this experiment consisted of streptomycin sulfate, NaHCO3 solution, and penicillin sodium salt, and FBS in proper proportion. The initial seeding of 8.6 × 10^3 mice hepatocytes and 7.1 × 10^3 LCMK-2 cells was indicated in 96 well plates. The cells were preserved with salicylalazine at different concentrations, and vehicle (0.2% DMSO), and hatching was performed for […] by MTT following our previously reported method.

[6] = Carrageenan-induced paw edema; type: in vivo, mice
Protocol: as §2
This model was used to identify the anti-inflammatory potency of salicylalazine purified from M. biflora according to the standard method. The animals were randomly distributed into different groups depending on the treatment. Group I was treated with distilled water (10 mL/kg), which acted as a negative control. […] After 30 min of the intraperitoneal subjection of the mentioned administrations, 1% carrageen (0.05 mL) was […] administrated in the right paw of each animal. The inflammation in every animal was recoded after 1–5 h of carrageenan treatment using a plethysmometer (LE 7500 plan lab S.L). The anti-inflammatory action of salicylalazine was measured using the following formula: Activity %=A−B /A×100 where A is the paw edema of the control group, and B is the paw edema of the screening group.

[7] = Traction muscle relaxation model; type: in vivo, mice (Balb/c)
Protocol: as §2
A traction screening model was adapted to identify the relaxation of muscle for salicylalazine isolated from M. biflora according to the standard method. The traction model was considered by using metallic wires covered with rubber, and then the wires were linked with each other using a stand around 60 cm upstairs of the lab bench. The animals were distributed into different groups, with each group comprising six animals (n = 6). The various groups of animals were administered water, diazepam, and salicylalazine at different doses. After administration, all groups of animals were subjected to traction screening after 30, 60, and 90 min. […] Traction testing was repeatedly performed to calculate the muscle relaxant ability of salicylalazine as per the reported method.

[8] = system: HepG2; test: Anticancer MTT assay, HepG2; type: cell-based; details: Homo sapiens, 24 h
Protocol: as §1

[9] = system: mouse hepatocytes; test: Cytotoxicity MTT assay, mouse hepatocytes; type: cell-based
Protocol: as §3

[10] = system: MDR2780AD; test: Anticancer MTT assay, MDR2780AD; type: cell-based; details: 24 h

COX-1, sequence (P23219 24-599): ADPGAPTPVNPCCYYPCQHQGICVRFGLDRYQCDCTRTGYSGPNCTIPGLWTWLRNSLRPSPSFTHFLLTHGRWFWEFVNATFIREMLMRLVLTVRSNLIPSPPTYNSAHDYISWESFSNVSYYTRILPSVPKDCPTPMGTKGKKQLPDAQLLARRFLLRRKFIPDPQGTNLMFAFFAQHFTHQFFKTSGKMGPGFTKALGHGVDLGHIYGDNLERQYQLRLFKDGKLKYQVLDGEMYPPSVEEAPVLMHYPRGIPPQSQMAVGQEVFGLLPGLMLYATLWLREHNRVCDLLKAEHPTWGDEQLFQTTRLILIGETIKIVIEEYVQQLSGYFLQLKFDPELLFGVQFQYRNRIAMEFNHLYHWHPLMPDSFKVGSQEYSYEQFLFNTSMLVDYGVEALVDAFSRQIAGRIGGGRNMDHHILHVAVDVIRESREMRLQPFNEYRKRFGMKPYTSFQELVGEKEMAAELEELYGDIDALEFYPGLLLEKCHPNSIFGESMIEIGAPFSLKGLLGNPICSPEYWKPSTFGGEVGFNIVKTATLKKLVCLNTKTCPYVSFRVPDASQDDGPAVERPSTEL

Structure (SMILES): Oc1ccccc1/C=N/N=C/c1ccccc1O [Salicylalazine, salicylalazine]
- IC50 [1]: 115.5 ± 0.42 µM
- Inclined Plane Test (%) ([2]; dose 2.5 mg/kg i.p., 30 min): 20.11 ± 1.45%
- Inclined Plane Test (%) ([2]; dose 2.5 mg/kg i.p., 60 min): 26.23 ± 1.66%
- Inclined Plane Test (%) ([2]; dose 2.5 mg/kg i.p., 90 min): 27.45 ± 1.23%
- Inclined Plane Test (%) ([2]; dose 5 mg/kg i.p., 30 min): 27.34 ± 1.66%
- Inclined Plane Test (%) ([2]; dose 5 mg/kg i.p., 60 min): 33.09 ± 1.60%
- Inclined Plane Test (%) ([2]; dose 5 mg/kg i.p., 90 min): 34.09 ± 1.30%
- Inclined Plane Test (%) ([2]; dose 10 mg/kg i.p., 30 min): 33.98 ± 1.40%
- Inclined Plane Test (%) ([2]; dose 10 mg/kg i.p., 60 min): 38.08 ± 1.55%
- Inclined Plane Test (%) ([2]; dose 10 mg/kg i.p., 90 min): 39.43 ± 1.28%
- Inclined Plane Test (%) ([2]; dose 15 mg/kg i.p., 30 min): 44.53 ± 1.43%
- Inclined Plane Test (%) ([2]; dose 15 mg/kg i.p., 60 min): 50.94 ± 1.50%
- Inclined Plane Test (%) ([2]; dose 15 mg/kg i.p., 90 min): 51.52 ± 1.20%
- Inclined Plane Test (%) ([2]; dose 20 mg/kg i.p., 30 min): 52.09 ± 1.30%
- Inclined Plane Test (%) ([2]; dose 20 mg/kg i.p., 60 min): 59.34 ± 1.45%
- Inclined Plane Test (%) ([2]; dose 20 mg/kg i.p., 90 min): 60.88 ± 1.19%
- No of Lines Crossed ([3]; dose 2.5 mg/kg): 78.54 ± 0.98
- No of Lines Crossed ([3]; dose 5 mg/kg): 69.98 ± 1.22
- No of Lines Crossed ([3]; dose 10 mg/kg): 60.90 ± 1.00
- No of Lines Crossed ([3]; dose 15 mg/kg): 51.09 ± 0.97
- No of Lines Crossed ([3]; dose 20 mg/kg): 40.98 ± 0.80
- IC50 [4]: 44.1 ± 1.18 µM
- In vitro cytotoxicity (MTT) [5]: did not exhibit any considerable cytotoxicity
- melting point: 215 to 218 °C
- Attenuation of carrageenan-induced paw edema (maximum) ([6]; 15 mg/kg, after 3 h): 80.98%
- Inhibition of carrageenan-induced paw edema (maximum) ([6]; 20 mg/kg, 3 h after carrageenan): 90.22%
- Inhibition of carrageenan-induced paw edema ([6]; 20 mg/kg, after 1 h): 45.11%
- Traction Test (%) ([7]; dose 2.5 mg/kg, 30 min): 21.23 ± 1.55%
- Traction Test (%) ([7]; dose 2.5 mg/kg, 60 min): 27.78 ± 2.10%
- Traction Test (%) ([7]; dose 2.5 mg/kg, 90 min): 28.65 ± 1.02%
- Traction Test (%) ([7]; dose 5 mg/kg, 30 min): 28.12 ± 1.60%
- Traction Test (%) ([7]; dose 5 mg/kg, 60 min): 34.56 ± 2.07%
- Traction Test (%) ([7]; dose 5 mg/kg, 90 min): 35.34 ± 2.00%
- Traction Test (%) ([7]; dose 10 mg/kg, 30 min): 34.99 ± 1.70%
- Traction Test (%) ([7]; dose 10 mg/kg, 60 min): 39.45 ± 2.12%
- Traction Test (%) ([7]; dose 10 mg/kg, 90 min): 40.66 ± 1.88%
- Traction Test (%) ([7]; dose 15 mg/kg, 30 min): 45.78 ± 1.88%
- Traction Test (%) ([7]; dose 15 mg/kg, 60 min): 52.98 ± 2.15%
- Traction Test (%) ([7]; dose 15 mg/kg, 90 min): 52.32 ± 2.04%
- Traction Test (%) ([7]; dose 20 mg/kg, 30 min): 53.72 ± 1.89%
- Traction Test (%) ([7]; dose 20 mg/kg, 60 min): 60.56 ± 2.13%
- Traction Test (%) ([7]; dose 20 mg/kg, 90 min): 61.32 ± 2.06%
- IC50 [8]: 20.8 ± 0.38 µM
- In vitro cytotoxicity (MTT) [9]: did not exhibit any considerable cytotoxicity
- IC50 [10]: 0.85 ± 0.09 µM

Source: PMC9181852, “In Vivo and In Vitro Biological Evaluation and Molecular Docking Studies of Compounds Isolated from Micromeria biflora (Buch. Ham. ex D.Don) Benth” (Molecules, 2022)
